Legend:
[1] = 303.15 K, Liquid; for speed of sound / viscosity: 101 kPa; for mass density: 101.33 kPa, Pycnometric method
[2] = φn = volume fraction of the nth substance listed; conditions: 303.15 K, 101 kPa, Liquid
[3] = xn = mol fraction of the nth substance listed; conditions: 303.15 K, 101 kPa, Liquid, Direct dilatometry

Cc1ccccc1Cl [2-chlorotoluene]
[1]
Conditions | mass density [kg/m3] | speed of sound [m/s] | viscosity [mPa·s]
– | 1072.77 | 1284 | 0.887

Cc1ccccc1Cl [2-chlorotoluene] + CC(=O)c1ccccc1
[2], φ2 = 0
Conditions | speed of sound [m/s] | viscosity [mPa·s]
– | 1284 | 0.887

Cc1ccccc1[N+](=O)[O-] [2-nitrotoluene]
[1]
Conditions | mass density [kg/m3] | viscosity [mPa·s]
– | 1153.26 | 1.911

Cc1ccccc1[N+](=O)[O-] [2-nitrotoluene] + CC(=O)c1ccccc1
Conditions | excess molar volume [m3/mol] | speed of sound [m/s] | viscosity [mPa·s]
[2], φ2 = 0 | – | – | 1.911
[2], φ2 = 0.0805 | – | 2017 | 1.91
[2], φ2 = 0.1011 | – | 1997 | 1.903
[2], φ2 = 0.2132 | – | 1889 | 1.857
[2], φ2 = 0.3245 | – | 1803 | 1.817
[2], φ2 = 0.4197 | – | 1737 | 1.781
[2], φ2 = 0.5086 | – | 1681 | 1.747
[2], φ2 = 0.6196 | – | 1622 | 1.701
[2], φ2 = 0.7297 | – | 1568 | 1.652
[2], φ2 = 0.7911 | – | 1541 | 1.624
[2], φ2 = 0.8704 | – | 1508 | 1.582
[3], x2 = 0.0812 | 1.1e-08 | – | –
[3], x2 = 0.1019 | 1.5e-08 | – | –
[3], x2 = 0.2147 | 2.4e-08 | – | –
[3], x2 = 0.3265 | 3.3e-08 | – | –
[3], x2 = 0.4219 | 3.9e-08 | – | –
[3], x2 = 0.5109 | 4.2e-08 | – | –
[3], x2 = 0.6217 | 3.7e-08 | – | –
[3], x2 = 0.7315 | 2.6e-08 | – | –
[3], x2 = 0.7926 | 2e-08 | – | –
[3], x2 = 0.8714 | 1.1e-08 | – | –

Cc1cccc(Cl)c1 [3-chlorotoluene]
[1]
Conditions | mass density [kg/m3] | speed of sound [m/s] | viscosity [mPa·s]
– | 1065.22 | 1280 | 0.782

Cc1cccc(Cl)c1 [3-chlorotoluene] + CC(=O)c1ccccc1
Conditions | excess molar volume, [3] [m3/mol] | speed of sound, [2] [m/s] | viscosity, [2] [mPa·s]
x2 = 0.0524 | 1e-08 | – | –
x2 = 0.103 | 1.5e-08 | – | –
x2 = 0.2141 | 2.3e-08 | – | –
x2 = 0.3119 | 2.9e-08 | – | –
x2 = 0.4266 | 3.3e-08 | – | –
x2 = 0.5009 | 3.4e-08 | – | –
x2 = 0.6174 | 3.2e-08 | – | –
x2 = 0.705 | 2.8e-08 | – | –
x2 = 0.8519 | 1.5e-08 | – | –
x2 = 0.952 | 6e-09 | – | –
φ2 = 0 | – | 1280 | 0.782
φ2 = 0.052 | – | 1297 | 0.891
φ2 = 0.1022 | – | 1315 | 0.901
φ2 = 0.2127 | – | 1346 | 1.002
φ2 = 0.3101 | – | 1370 | 1.073
φ2 = 0.4246 | – | 1395 | 1.16
φ2 = 0.4988 | – | 1412 | 1.222
φ2 = 0.6154 | – | 1431 | 1.31
φ2 = 0.7033 | – | 1438 | 1.37
φ2 = 0.8508 | – | 1449 | 1.458
φ2 = 0.9516 | – | 1455 | 1.503

Cc1cccc([N+](=O)[O-])c1 [3-nitrotoluene]
[1]
Conditions | mass density [kg/m3] | viscosity [mPa·s]
– | 1147.62 | 1.775

Cc1cccc([N+](=O)[O-])c1 [3-nitrotoluene] + CC(=O)c1ccccc1
Conditions | excess molar volume [m3/mol] | speed of sound [m/s] | viscosity [mPa·s]
[2], φ2 = 0 | – | – | 1.775
[2], φ2 = 0.0972 | – | 1987 | 1.748
[2], φ2 = 0.116 | – | 1972 | 1.745
[2], φ2 = 0.2051 | – | 1892 | 1.731
[2], φ2 = 0.3085 | – | 1808 | 1.713
[2], φ2 = 0.4191 | – | 1737 | 1.694
[2], φ2 = 0.5383 | – | 1666 | 1.666
[2], φ2 = 0.6446 | – | 1608 | 1.64
[2], φ2 = 0.7076 | – | 1580 | 1.623
[2], φ2 = 0.7994 | – | 1539 | 1.594
[2], φ2 = 0.886 | – | 1503 | 1.564
[3], x2 = 0.0984 | 1.8e-08 | – | –
[3], x2 = 0.1174 | 2.1e-08 | – | –
[3], x2 = 0.2074 | 3e-08 | – | –
[3], x2 = 0.3115 | 3.9e-08 | – | –
[3], x2 = 0.4225 | 4.7e-08 | – | –
[3], x2 = 0.5417 | 5e-08 | – | –
[3], x2 = 0.6478 | 4.3e-08 | – | –
[3], x2 = 0.7105 | 3.5e-08 | – | –
[3], x2 = 0.8016 | 2.5e-08 | – | –
[3], x2 = 0.8874 | 1.4e-08 | – | –
